From article PMC10247784, “Physiological activation of human and mouse bitter taste receptors by bile acids” (Communications Biology, 2023)
“And” between values parts separate entries of the source, which are not always exact repeats. Equal entries are not always repeated.

Molecular target: T1, human TAS2R4 (Homo sapiens, UniProt Q9NYW5)
T1 construct: expressed in transfected cells; host or cells: HEK293T-Gα16gust44
T1 sequence (Q9NYW5 1-299): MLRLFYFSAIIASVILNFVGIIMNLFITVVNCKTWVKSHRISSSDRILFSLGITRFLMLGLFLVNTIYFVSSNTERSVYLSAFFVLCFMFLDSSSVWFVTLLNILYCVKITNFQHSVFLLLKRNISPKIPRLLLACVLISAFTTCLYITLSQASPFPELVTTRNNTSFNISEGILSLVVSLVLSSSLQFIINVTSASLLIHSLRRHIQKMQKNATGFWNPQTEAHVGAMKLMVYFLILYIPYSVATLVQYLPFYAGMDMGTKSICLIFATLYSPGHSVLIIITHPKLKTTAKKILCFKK
Test: Calcium imaging assay (FLIPR), HEK293T-Gα16gust44 cells transfected with human TAS2R4
Type: cell-based
Outline: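 Calcium responses via FLIPR in receptor-transfected HEK293T-Gα16gust44 cells (Fluo-4-AM, 2.5 mM probenecid), after mock-signal subtraction and normalization to baseline and buffer (ΔF/F). Threshold concentration is the lowest dose differing from mock cells at p < 0.01 (Student's t-test), from three biological replicates in duplicate.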

Efficacy = maximal amplitude (ΔF/F) (TAS2R4, bile acids, mean): 0.1626
Efficacy (maximal amplitude ΔF/F), individual data points (TAS2R4, bile acids, single replicates, listed as GCA): 0.1367 and 0.1786 and 0.1725
Δ F/F (TAS2R4, conc. 0,01 mM): 0.01565
Δ F/F (TAS2R4, conc. 0,1 mM): 0.106
Δ F/F (TAS2R4, conc. 0,03 mM): 0.03923
Δ F/F (TAS2R4, conc. 0,3 mM): 0.1626
Δ F/F (TAS2R4, conc. 0,001 mM): 0.006443
Δ F/F (TAS2R4, conc. 0,003 mM): 0.006613
RLU, fluorescence trace (Time (s) 0): 0 RLU
RLU, fluorescence trace (Time (s) 2): 4.14 RLU
RLU, fluorescence trace (Time (s) 4): -20.6032 RLU
RLU, fluorescence trace (Time (s) 6): -25.8877 RLU
RLU, fluorescence trace (Time (s) 8): -29.799 RLU
RLU, fluorescence trace (Time (s) 12): -12.9106 RLU
RLU, fluorescence trace (Time (s) 14): -6.673 RLU
RLU, fluorescence trace (Time (s) 16): -18.2287 RLU
RLU, fluorescence trace (Time (s) 18): -27.0676 RLU
RLU, fluorescence trace (Time (s) 18.766 (TCA, TLCA: 18.782)): -34.2066 RLU
RLU, fluorescence trace (Time (s) 20.781 (TCA, TLCA: 20.782)): -42.9373 RLU
RLU, fluorescence trace (Time (s) 22.781 (TCA, TLCA: 22.782)): 15.1075 RLU
RLU, fluorescence trace (Time (s) 24.781 (TCA, TLCA: 24.782)): 91.6518 RLU
RLU, fluorescence trace (Time (s) 26.781 (TCA, TLCA: 26.782)): 179.573 RLU
RLU, fluorescence trace (Time (s) 28.781 (TCA, TLCA: 28.782)): 304.257 RLU
RLU, fluorescence trace (Time (s) 30.781 (TCA, TLCA: 30.782)): 388.704 RLU
RLU, fluorescence trace (Time (s) 32.781 (TCA, TLCA: 32.782)): 524.444 RLU
RLU, fluorescence trace (Time (s) 34.781 (TCA, TLCA: 34.782)): 591.908 RLU
RLU, fluorescence trace (Time (s) 36.781 (TCA, TLCA: 36.782)): 664.761 RLU
RLU, fluorescence trace (Time (s) 38.781 (TCA, TLCA: 38.782)): 747.083 RLU
RLU, fluorescence trace (Time (s) 40.781 (TCA, TLCA: 40.782)): 780.753 RLU
RLU, fluorescence trace (Time (s) 42.781 (TCA, TLCA: 42.782)): 820.227 RLU
RLU, fluorescence trace (Time (s) 44.781 (TCA, TLCA: 44.782)): 854.725 RLU
RLU, fluorescence trace (Time (s) 46.781 (TCA, TLCA: 46.782)): 885.437 RLU
RLU, fluorescence trace (Time (s) 48.781 (TCA, TLCA: 48.782)): 869.015 RLU
RLU, fluorescence trace (Time (s) 50.781 (TCA, TLCA: 50.782)): 904.393 RLU
RLU, fluorescence trace (Time (s) 52.781 (TCA, TLCA: 52.782)): 904.624 RLU
RLU, fluorescence trace (Time (s) 54.781 (TCA, TLCA: 54.782)): 934.879 RLU
RLU, fluorescence trace (Time (s) 56.781 (TCA, TLCA: 56.782)): 910.42 RLU
RLU, fluorescence trace (Time (s) 58.781 (TCA, TLCA: 58.782)): 920.415 RLU
RLU, fluorescence trace (Time (s) 60.781 (TCA, TLCA: 60.782)): 939.945 RLU
RLU, fluorescence trace (Time (s) 62.781 (TCA, TLCA: 62.782)): 894.354 RLU
RLU, fluorescence trace (Time (s) 64.781 (TCA, TLCA: 64.782)): 892.209 RLU
RLU, fluorescence trace (Time (s) 66.781 (TCA, TLCA: 66.782)): 883.058 RLU
RLU, fluorescence trace (Time (s) 68.781 (TCA, TLCA: 68.782)): 897.442 RLU
RLU, fluorescence trace (Time (s) 70.781 (TCA, TLCA: 70.782)): 864.365 RLU
RLU, fluorescence trace (Time (s) 72.781 (TCA, TLCA: 72.782)): 888.719 RLU
RLU, fluorescence trace (Time (s) 74.781 (TCA, TLCA: 74.782)): 833.342 RLU
RLU, fluorescence trace (Time (s) 76.781 (TCA, TLCA: 76.782)): 856.102 RLU
RLU, fluorescence trace (Time (s) 78.781 (TCA, TLCA: 78.782)): 820.296 RLU
RLU, fluorescence trace (Time (s) 80.781 (TCA, TLCA: 80.782)): 794.483 RLU
RLU, fluorescence trace (Time (s) 82.781 (TCA, TLCA: 82.782)): 818.87 RLU
RLU, fluorescence trace (Time (s) 84.781 (TCA, TLCA: 84.782)): 756.604 RLU
RLU, fluorescence trace (Time (s) 86.781 (TCA, TLCA: 86.782)): 753.892 RLU
RLU, fluorescence trace (Time (s) 88.781 (TCA, TLCA: 88.782)): 732.115 RLU
RLU, fluorescence trace (Time (s) 90.781 (TCA, TLCA: 90.782)): 726.989 RLU
RLU, fluorescence trace (Time (s) 92.781 (TCA, TLCA: 92.782)): 713.242 RLU
RLU, fluorescence trace (Time (s) 94.781 (TCA, TLCA: 94.782)): 703.281 RLU
RLU, fluorescence trace (Time (s) 96.781 (TCA, TLCA: 96.782)): 696.734 RLU
RLU, fluorescence trace (Time (s) 98.781 (TCA, TLCA: 98.782)): 653.577 RLU
RLU, fluorescence trace (Time (s) 100.781 (TCA, TLCA: 100.782)): 678.663 RLU
RLU, fluorescence trace (Time (s) 102.781 (TCA, TLCA: 102.782)): 623.965 RLU
RLU, fluorescence trace (Time (s) 104.781 (TCA, TLCA: 104.782)): 624.137 RLU
RLU, fluorescence trace (Time (s) 106.781 (TCA, TLCA: 106.782)): 630.047 RLU
RLU, fluorescence trace (Time (s) 108.781 (TCA, TLCA: 108.782)): 571.666 RLU
RLU, fluorescence trace (Time (s) 110.781 (TCA, TLCA: 110.782)): 598.289 RLU
RLU, fluorescence trace (Time (s) 112.781 (TCA, TLCA: 112.782)): 583.918 RLU
RLU, fluorescence trace (Time (s) 114.781 (TCA, TLCA: 114.782)): 556.25 RLU
RLU, fluorescence trace (Time (s) 116.781 (TCA, TLCA: 116.782)): 588.773 RLU
RLU, fluorescence trace (Time (s) 118.781 (TCA, TLCA: 118.782)): 548.501 RLU
RLU, fluorescence trace (Time (s) 120.781 (TCA, TLCA: 120.782)): 507.386 RLU
RLU, fluorescence trace (Time (s) 122.781 (TCA, TLCA: 122.782)): 507.852 RLU
RLU, fluorescence trace (Time (s) 124.781 (TCA, TLCA: 124.782)): 509.201 RLU
RLU, fluorescence trace (Time (s) 126.781 (TCA, TLCA: 126.782)): 489.381 RLU
RLU, fluorescence trace (Time (s) 128.781 (TCA, TLCA: 128.782)): 446.993 RLU
RLU, fluorescence trace (Time (s) 130.781 (TCA, TLCA: 130.782)): 463.894 RLU
RLU, fluorescence trace (Time (s) 132.781 (TCA, TLCA: 132.782)): 448.798 RLU
RLU, fluorescence trace (Time (s) 134.781 (TCA, TLCA: 134.782)): 427.428 RLU
RLU, fluorescence trace (Time (s) 136.781 (TCA, TLCA: 136.782)): 402.196 RLU
RLU, fluorescence trace (Time (s) 137.547): 379.772 RLU
RLU, fluorescence trace (Time (s) 143.547): 379.834 RLU
RLU, fluorescence trace (Time (s) 149.547): 308.948 RLU
RLU, fluorescence trace (Time (s) 155.547): 318.726 RLU
RLU, fluorescence trace (Time (s) 161.547): 303.241 RLU
RLU, fluorescence trace (Time (s) 167.547): 312.32 RLU
RLU, fluorescence trace (Time (s) 173.547): 281.168 RLU
RLU, fluorescence trace (Time (s) 179.547): 242.535 RLU
RLU, fluorescence trace (Time (s) 185.547): 225.911 RLU
RLU, fluorescence trace (Time (s) 191.547): 214.607 RLU
RLU, fluorescence trace (Time (s) 197.547): 221.087 RLU
RLU, fluorescence trace (Time (s) 203.547): 189.795 RLU
RLU, fluorescence trace (Time (s) 209.547): 203.53 RLU
RLU, fluorescence trace (Time (s) 215.547): 197.074 RLU
RLU, fluorescence trace (Time (s) 221.547): 173.704 RLU
RLU, fluorescence trace (Time (s) 227.547): 160.915 RLU
RLU, fluorescence trace (Time (s) 233.547): 142.108 RLU
RLU, fluorescence trace (Time (s) 239.547): 141.876 RLU
RLU, fluorescence trace (Time (s) 245.547): 156.883 RLU
RLU, fluorescence trace (Time (s) 293.547): 127.131 RLU
RLU, fluorescence trace (Time (s) 299.547): 134.948 RLU
RLU, fluorescence trace (Time (s) 305.547): 119.109 RLU
RLU, fluorescence trace (Time (s) 311.547): 130.712 RLU
RLU, fluorescence trace (Time (s) 317.547): 94.0562 RLU
RLU, fluorescence trace (Time (s) 323.547): 123.872 RLU
RLU, fluorescence trace (Time (s) 329.547): 117.665 RLU
RLU, fluorescence trace (Time (s) 335.547): 137.018 RLU
RLU, fluorescence trace (Time (s) 341.547): 127.876 RLU
RLU, fluorescence trace (Time (s) 347.547): 133.973 RLU
RLU, fluorescence trace (Time (s) 353.547): 116.889 RLU
RLU, fluorescence trace (Time (s) 359.547): 102.962 RLU
Activation threshold concentration TAS2R4 (lowest concentration with significantly increased fluorescence vs empty vector (p < 0.01)): 30 µM
Compound: C[C@H](CCC(=O)NCC(=O)O)[C@H]1CC[C@H]2[C@@H]3[C@H](O)C[C@@H]4C[C@H](O)CC[C@]4(C)[C@H]3C[C@H](O)[C@]12C [Glycocholic Acid, glycocholic acid]
